How the values were obtained:
Format in all cases: in vivo
[1] = tested on: Setaria faberi (SETFA); assay: Example A pre-emergence herbicidal glasshouse test; details: 312 h, Rate 250 g/ha, evaluated after 13 days, 100=total damage to plant, 0=no damage to plant
Method: (§1) Seeds of a variety of test species were sown in standard soil in pots. After cultivation for one day (pre-emergence) or after 8 days cultivation (post-emergence) under controlled conditions in a glasshouse (at 24/16° C., day/night; 14 hours light; 65% humidity), the plants were sprayed with an aqueous spray solution derived from the formulation of the technical active ingredient in acetone/water (50:50) solution containing 0.5% Tween 20 (polyoxyethelyene sorbitan monolaurate, CAS RN 9005-64-5). The test plants were then grown in a glasshouse under controlled conditions in a glasshouse (at 24/16° C., day/night; 14 hours light; 65% humidity) and watered twice daily. After 13 days for pre and post-emergence, the test was evaluated (100=total damage to plant; 0=no damage to plant).
(§2) Alopecurus myosuroides (ALOMY), Avena fatua (AVEFA), Setaria faberi (SETFA), Echinochloa crus-galli (ECHCG), Solanum nigrum (SOLNI) and Amaranthus retroflexus (AMARE)

[2] = tested on: Avena fatua (AVEFA); assay: Example A pre-emergence herbicidal glasshouse test; details: 312 h, Rate 250 g/ha, evaluated after 13 days, 100=total damage to plant, 0=no damage to plant
Method: as §1, §2

[3] = tested on: Amaranthus retroflexus (AMARE); assay: Example A pre-emergence herbicidal glasshouse test; details: 312 h, Rate 250 g/ha, evaluated after 13 days, 100=total damage to plant, 0=no damage to plant
Method: as §1, §2

[4] = tested on: Echinochloa crus-galli (ECHCG); assay: Example A pre-emergence herbicidal glasshouse test; details: 312 h, Rate 250 g/ha, evaluated after 13 days, 100=total damage to plant, 0=no damage to plant
Method: as §1, §2

[5] = tested on: Alopecurus myosuroides (ALOMY); assay: Example A pre-emergence herbicidal glasshouse test; details: 312 h, Rate 250 g/ha, evaluated after 13 days, 100=total damage to plant, 0=no damage to plant
Method: as §1, §2

[6] = tested on: Setaria faberi (SETFA); assay: Example A post-emergence herbicidal glasshouse test; details: 312 h, evaluated after 13 days, 100=total damage to plant, 0=no damage
Method: as §1, §2

[7] = tested on: Avena fatua (AVEFA); assay: as above; details: 312 h, evaluated after 13 days, 100=total damage to plant, 0=no damage
Method: as §1, §2

[8] = tested on: Amaranthus retroflexus (AMARE); assay: as above; details: 312 h, evaluated after 13 days, 100=total damage to plant, 0=no damage
Method: as §1, §2

[9] = tested on: Echinochloa crus-galli (ECHCG); assay: as above; details: 312 h, evaluated after 13 days, 100=total damage to plant, 0=no damage
Method: as §1, §2

[10] = tested on: Alopecurus myosuroides (ALOMY); assay: as above; details: 312 h, evaluated after 13 days, 100=total damage to plant, 0=no damage
Method: as §1, §2

Row | SMILES | pest or weed control at 250 g/ha [1] [%] | pest or weed control at 250 g/ha [2] [%] | pest or weed control at 250 g/ha [3] [%] | pest or weed control at 250 g/ha [4] [%] | pest or weed control at 250 g/ha [5] [%] | pest or weed control at 250 g/ha [6] [%] | pest or weed control at 250 g/ha [7] [%] | pest or weed control at 250 g/ha [8] [%] | pest or weed control at 250 g/ha [9] [%] | pest or weed control at 250 g/ha [10] [%]
1 | Cc1cc(-c2ccccc2)ccc1C1=C(O)[C@H]2CC[C@H](C2)C1=O (single isomer, unassigned) [Compound T58] | 20 | 0 | 30 | 40 | 10 | 100 | 0 | 0 | 70 | 60
2 | CCc1cc(-c2ccc(C)cc2)ccc1C1=C(O)[C@H]2CC[C@H](C2)C1=O (single isomer, unassigned) [Compound T60] | 100 | 30 | 0 | 100 | 60 | 100 | 50 | 0 | 100 | 90
3 | CCc1ccc(-c2cnc(Cl)cc2C)cc1C1=C(O)[C@H]2CC[C@H](C2)C1=O (single isomer, unassigned) [Compound T77] | 30 | 0 | 0 | 0 | 0 | 90 | 0 | 0 | 80 | 30
4 | CCc1ccc(-c2ccc(Cl)nc2)cc1C1=C(O)[C@H]2CC[C@H](C2)C1=O (single isomer, unassigned) [Compound T78] | 90 | 30 | 0 | 60 | 40 | 100 | 60 | 0 | 100 | 70
5 | CCc1ccc(-c2ccc(Cl)nc2C)cc1C1=C(O)[C@H]2CC[C@H](C2)C1=O (single isomer, unassigned) [Compound T79] | 70 | 0 | 0 | 0 | 0 | 100 | 20 | 0 | 90 | 40
6 | CCc1ccc(-c2ccc(Cl)nc2Cl)cc1C1=C(O)[C@H]2CC[C@H](C2)C1=O (single isomer, unassigned) [Compound T80] | 100 | 50 | 0 | 90 | 30 | 100 | 70 | 0 | 90 | 70
7 | Cc1ccc(-c2ccc(Cl)nc2)cc1C1=C(O)[C@H]2CC[C@H](C2)C1=O (single isomer, unassigned) [Compound T81] | 70 | 40 | 20 | 50 | 30 | 90 | 70 | 0 | 80 | 50
8 | CCOc1ccc(-c2ccc(Cl)cc2)cc1C1=C(O)[C@H]2CC[C@H](C2)C1=O [Compound T52] | 0 | 0 | 0 | 0 | 0 | 90 | 0 | 0 | 80 | 40
9 | COc1ccc(-c2ccc(Cl)cc2Cl)cc1C1=C(O)[C@H]2CC[C@H](C2)C1=O [Compound T53] | 0 | 0 | 0 | 0 | 0 | 80 | 0 | 0 | 30 | 0
10 | CCc1ccc(-c2ccc(Cl)cc2Cl)cc1C1=C(O)[C@H]2C=C[C@H](CC2)C1=O [Compound T56] | 50 | 0 | 60 | 30 | 10 | 100 | 70 | 10 | 100 | 60
11 | CCc1ccc(-c2ccc(Cl)cc2F)cc1C1=C(O)[C@H]2C=C[C@H](CC2)C1=O [Compound T57, 3-(4′-chloro-4-ethyl-2′-fluorobiphen-3-yl)bicyclo[3.2.2]non-6-ene-2,4-dione] | 90 | 0 | 0 | 50 | 0 | 100 | 40 | 0 | 100 | 30
12 | CCc1ccc(-c2ccc(Cl)cc2)cc1C1=C(O)C2CC(C1=O)C2(C)C (stereo not drawn) [Compound T69, 3-(4′-chloro-4-ethylbiphen-3-yl)-6,6-dimethylbicyclo[3.1.1]heptane-2,4-dione] | 90 | 0 | 0 | 100 | 20 | 100 | 80 | 0 | 100 | 70

— US8828908B2, “Herbicidally active bicyclic 1,3-dione compounds” (Syngenta Limited, priority 2007, dated 2014)
